Assay results: patent publication US20240383941A1, “3-ALPHA SUBSTITUTED 3-BETA-HYDROXY-17-OXIMATED ANDROSTANE COMPOUND FOR MODULATION OF THE ALPHA-3 SUBTYPE OF THE GABAA RECEPTOR” (priority 2021, published 2024)
Where “and” joins values, the source holds several entries; their conditions need not be identical. Equal values may be shown once. Entries after “also recorded” stand apart in the source; their conditions may differ.

Experiments:
[1] = molecular target: T1, human α3β3γ2L GABAA receptor subtype (Homo sapiens, UniProt P28472+P34903); experiment: Whole-cell patch clamp (Dynaflow) on HEK-293 cells expressing the GABAA receptor α3β3γ2L subtype; assay type: cell-based; conditions: for 100 μM GABA mediated current response, area under curve, Mean ± SEM: 1 μM steroid + 100 μM GABA, relative to 100 μM GABA (set as 0%); for reduction (block) of the THDOC enhanced effect / effect on GABAs own effect on current response / reduction of the GABA effect: 100 μM GABA; for reduction (block) of the THDOC enhanced effect / reduction of the GABA effect: stated as size of reduction; for activation of the receptor / own effect in absence of GABA: steroid alone, in absence of GABA and/or THDOC
T1 construct: expressed in transfected cells; host or cells: HEK-293 cells (wild-type cells obtained from Pasteur Institute, Paris), permanently transfected
T1 sequence (P34903 29-492): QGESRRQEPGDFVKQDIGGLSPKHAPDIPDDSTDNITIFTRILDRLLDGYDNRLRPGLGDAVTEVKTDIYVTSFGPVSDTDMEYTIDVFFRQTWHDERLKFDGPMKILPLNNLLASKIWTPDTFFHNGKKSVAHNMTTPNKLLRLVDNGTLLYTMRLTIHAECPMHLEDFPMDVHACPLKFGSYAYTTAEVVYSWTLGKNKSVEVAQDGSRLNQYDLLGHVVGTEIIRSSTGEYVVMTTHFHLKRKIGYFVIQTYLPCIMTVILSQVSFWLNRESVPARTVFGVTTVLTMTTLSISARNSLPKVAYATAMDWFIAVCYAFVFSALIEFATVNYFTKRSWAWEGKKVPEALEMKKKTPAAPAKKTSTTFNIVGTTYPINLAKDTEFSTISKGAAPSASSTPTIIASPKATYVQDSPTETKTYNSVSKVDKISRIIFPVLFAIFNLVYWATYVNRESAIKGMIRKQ
T1 sequence (P28472 26-473): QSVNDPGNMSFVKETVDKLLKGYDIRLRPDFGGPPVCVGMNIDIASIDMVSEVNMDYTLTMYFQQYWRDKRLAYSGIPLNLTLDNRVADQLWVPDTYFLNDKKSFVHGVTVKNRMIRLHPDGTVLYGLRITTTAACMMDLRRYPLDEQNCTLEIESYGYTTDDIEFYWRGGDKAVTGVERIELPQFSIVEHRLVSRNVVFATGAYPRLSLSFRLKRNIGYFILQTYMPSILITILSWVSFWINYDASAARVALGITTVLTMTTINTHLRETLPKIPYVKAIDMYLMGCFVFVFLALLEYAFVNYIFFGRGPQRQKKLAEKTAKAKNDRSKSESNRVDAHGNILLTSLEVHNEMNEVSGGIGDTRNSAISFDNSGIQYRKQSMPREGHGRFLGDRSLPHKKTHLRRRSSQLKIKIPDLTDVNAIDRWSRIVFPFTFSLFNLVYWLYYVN
T1 sequence (P18507 40-475 partner): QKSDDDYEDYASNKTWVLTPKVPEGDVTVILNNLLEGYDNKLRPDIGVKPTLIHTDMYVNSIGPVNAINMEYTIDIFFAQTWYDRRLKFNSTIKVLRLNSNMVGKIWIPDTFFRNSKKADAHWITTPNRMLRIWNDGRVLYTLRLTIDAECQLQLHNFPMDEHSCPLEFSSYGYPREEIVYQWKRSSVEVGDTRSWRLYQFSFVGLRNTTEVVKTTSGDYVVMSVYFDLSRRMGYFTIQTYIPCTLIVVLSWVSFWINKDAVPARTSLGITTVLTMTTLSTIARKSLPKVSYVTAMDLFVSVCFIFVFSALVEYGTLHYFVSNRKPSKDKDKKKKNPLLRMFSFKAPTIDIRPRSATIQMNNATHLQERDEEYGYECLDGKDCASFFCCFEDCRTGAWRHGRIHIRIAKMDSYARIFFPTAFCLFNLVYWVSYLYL
Procedure: Aim: To investigate the effect of 3α-ethynyl-3β-hydroxy-5α-androstan-17-methoxime and 3α-ethyl-3β-hydroxy-5α-androstan-17-oxime, respectively, on the GABAA receptor function. Experiments were performed both in absence and in presence of the GAMS tetrahydrodeoxycorticosterone (THDOC), in the absence and presence of GABA. In these tests the protocol was optimized to be similar to the physiological conditions in the synaptic cleft.
Cell culture: Wild-type HEK-293 cells passage 4 (obtained from Pasteur Institute, Paris, France), permanently transfected with cDNA to express the human α3β3γ2L GABAA receptor subtype, were seeded in cell bind culture flasks, grown and maintained at the temperature of +37° C., with a gas mixture of 5% CO2 in the cell incubator. The transfected cells were used for patch-clamp experiments minimum one passages after defrosting and 3-5 days after seeding. The α3β3γ2L cells were seeded for maximal 15 times.
Electrophysiological recordings: Whole cell patch technique was used to record whole-cell currents from the cells. Patch electrodes were pulled from 1.5 mm O.D., 0.86 mm I.D. borosilicate capillary glass without filament. […] After compensation for liquid junction potential a steady holding potential of −17 mV was used in all experiments. The cells were added to the chip (see below) and kept in EC solution (see above). EC solution with or without steroids and GABA were applied by the Dynaflow™ system (see below). All experiments were performed at room temperature (21-23° C.).
Dynaflow™ system: Dynaflow™ system with Resolve chips was used for all patch-clamp experiments including steroids. The Resolve chip consists of a glass chip enclosed by a PEEK plastic top part and a supporting plastic bottom part. Both wells and channels are glass coated. The channel width is 150 μm and the height 50 μm. The well volume is 150 μL. Run time at the flow rate of 26 μL/min was 90 min. The pump settings were as follows: BD Plastikpak™ 2 mL syringe with inner diameter of 8.1 mm was used. The syringe pump flow rate for Resolve chip was 26 μL/min.
The Resolve chip allows synchronized control of switching between 16 experimental solutions. Laminar flow at each solution outlet of the microfluidic chip prevents mixing, and a computer-controlled stage motor is used to move the chip relative to the patch pipette, allowing for relatively rapid solution exchange around the membrane patch. PClamp 9.0 software, DigiData 1322A converter and AxonPatch 200B were used to generate command pulses and collect data. Clampfit 10.3, Prism 6.0 and excel were used for data analyzes.
GABA and steroids: GABA was dissolved in EC-solution by ultrasound for about 20 minutes at maximal 40° C. to the concentration of 10 mM.
THDOC was dissolved in ethanol 99.5% to the concentration of 0.2 mM and tested steroids dissolved in ethanol 99.5% to the concentration of 2 mM (with ultrasound). The final ethanol concentration was 0.1% in all end-solutions, including the wash solution (EC) and the solution with GABA alone. End-solutions are the solutions added into the wells of the chip.
Protocol: The binding site of THDOC is in the […] region of the receptor. To achieve stable response, the cell was exposed to steroid (THDOC and/or steroid) 20 seconds before GABA application. The standard protocol as follow: 20 s preincubation of steoids (100 nM THDOC alone or in combination with one of 1 μM 3α-ethynyl-3β-hydroxy-5α-androstan-17-methoxime and 3α-ethyl-3β-hydroxy-5α-androstan-17-oxime), followed by 2 s application of 100 μM GABA±steroids (100 nM THDOC alone or in combination with one of 1 μM 3α-ethynyl-3β-hydroxy-5α-androstan-17-methoxime and 3α-ethyl-3β-hydroxy-5α-androstan-17-oxime). Washout time was 120 s.
Steroid (3α-ethynyl-3β-hydroxy-5α-androstan-17-methoxime or 3α-ethyl-3β-hydroxy-5α-androstan-17-oxime)+THDOC, in absence of GABA, were therefore not analyzed. […]

[2] = Weight increase in growing male rats, experiment 2 (10 days s.c.); assay type: in vivo, Male Wistar rats
Procedure: (§1) Animals: Male Wistar rats were kept in group cages, with three animals per cage, from delivery and throughout the period of experiments. The individual animals were marked so that they could be identified throughout the experiment duration. The animals weight an average of 152 g upon arrival. A reversed light dark (12:12 h) cycle was used with the dark period onset at 0600 hrs. Altogether fifty-six (56) rats were used in this study (experiment 1+2). The animals were delivered from the breeder Taconic (Denmark). The study protocol was approved by the Regional Ethics Committee of Umea University, Sweden.
(§2) Feeding: Standard chow and water were available ad libitum. A reversed 12-h dark-light cycle with lights off at 10.00 am and lights on at 22.00 pm was used. For identification, the rats were marked with a permanent marker on the tail. To avoid the endogenous allopregnanolone fluctuations that are present in the estrous cycle of female rats, male rats were chosen (Frye et al. 2000). The animals were allowed to acclimatize for at least 3 weeks before start of the experimental sessions. During this period, the rats were repeatedly handled and allowed habituation to the new environment and to all new procedures, to minimize stress during the experiments.
(§3) After 14 days of triad housing, handling and injection training of the animals, the animals were treated for 5 days with IV injections in experiment 1 and 10 days with a daily subcutaneous injection of the assigned treatment in experiment 2 (Table 3 and 4). The injections were given at 08.00 every morning. The animals were weighed the day before onset of the treatment and at the last day of injection i.e. on the 5th or 10th day of treatment. Weight was taken at the time of the last injection. […] The results are shown in FIG. 2 (experiment 1) and FIG. 3 (experiment 2), respectively.

GABAA receptor = conditions: table 3 in WO 09/142594; cited from earlier work
[3] = Weight increase in growing male rats, experiment 1 (5 days IV); assay type: in vivo, Male Wistar rats
Procedure: as §1, §2, §3

[4] = molecular target: T2, GABAA receptor subtype α1β2γ2 (Homo sapiens, UniProt P14867+P47870); experiment: Patch clamp on GABAA receptor subtype α1β2γ2, essentially as described in Example 2; assay type: cell-based
T2 construct: expressed in transfected cells
T2 sequence (P14867 28-456): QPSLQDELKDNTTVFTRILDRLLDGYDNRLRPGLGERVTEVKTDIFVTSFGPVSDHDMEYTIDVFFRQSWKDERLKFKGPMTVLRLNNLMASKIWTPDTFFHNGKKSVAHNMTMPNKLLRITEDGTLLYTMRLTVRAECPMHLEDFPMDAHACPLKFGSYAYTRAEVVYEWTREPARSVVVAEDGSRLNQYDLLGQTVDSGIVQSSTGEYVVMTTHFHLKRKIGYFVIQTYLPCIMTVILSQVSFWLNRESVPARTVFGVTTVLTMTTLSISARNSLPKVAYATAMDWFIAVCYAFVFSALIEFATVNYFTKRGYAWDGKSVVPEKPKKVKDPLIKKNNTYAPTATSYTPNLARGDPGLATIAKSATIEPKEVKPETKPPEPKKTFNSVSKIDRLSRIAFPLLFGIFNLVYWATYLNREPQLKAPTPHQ
T2 sequence (P47870 25-512 limits assumed): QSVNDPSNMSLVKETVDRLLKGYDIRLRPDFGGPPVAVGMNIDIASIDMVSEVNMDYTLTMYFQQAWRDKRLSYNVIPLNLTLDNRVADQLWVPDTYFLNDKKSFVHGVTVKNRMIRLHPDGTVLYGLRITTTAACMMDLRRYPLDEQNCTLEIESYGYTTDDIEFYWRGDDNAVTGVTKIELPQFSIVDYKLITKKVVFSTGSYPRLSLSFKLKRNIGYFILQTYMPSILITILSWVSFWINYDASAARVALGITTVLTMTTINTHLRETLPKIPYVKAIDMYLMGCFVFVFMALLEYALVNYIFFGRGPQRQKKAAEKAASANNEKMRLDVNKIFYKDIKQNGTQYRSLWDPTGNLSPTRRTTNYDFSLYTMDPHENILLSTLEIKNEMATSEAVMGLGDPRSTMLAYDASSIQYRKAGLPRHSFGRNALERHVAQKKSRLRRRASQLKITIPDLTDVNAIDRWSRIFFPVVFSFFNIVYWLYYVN
T2 sequence (P18507 40-475 partner): as the sequence (P18507 40-475 partner) above

[5] = 1 mg/kg s.c. + 5 mg/kg progesterone + 10 μg/kg 17β-estradiol
[6] = 2 mg/kg IV daily for 5 days, in 10% 2-Hydroxypropyl-β-cyclodextrin

Structure (SMILES): C#C[C@]1(O)CC[C@@]2(C)[C@@H](CC[C@@H]3[C@@H]2CC[C@]2(C)C(=O)CC[C@@H]32)C1 [3α-ethynyl-3β-hydroxy-5α-androstan-17-one]
- Antagonism of 100 nM THDOC-enhancement, α3β3γ2 ([1]; 1 μM steroid + THDOC, Table 6): −166 ± 19.9%,
- Effect against GABAs agonistic effect, α3β3γ2 ([1]; 1 μM steroid, Table 6): −46 ± 1.3%,
- weight difference compared to vehicle [2, 5]: -33 ± 4.4 g
- weight difference versus E+P control rats [2, 5]: -23.9 ± 4.4 g
- weight difference versus E+P control rats ([2]; 5 mg/kg s.c. + 5 mg/kg progesterone + 10 μg/kg 17β-estradiol): -20.4 ± 5.2 g
- weight difference after 10 days of treatment compared to vehicle ([2]; s.c.): over 20%
- effect as a GAMSA or GAMS (GABAA receptor): no effect
- Mean weight increase since arrival [3, 6]: 97.43 g
- Mean weight increase since treatment start [3, 6]: 11.86 g
- increase in weight compared to vehicle treated groups ([3]; 2 mg/kg IV, 5 days): significantly lower
- Effect against GABAs agonistic effect, α1β2γ2 ([4]; 1 μM steroid): −1.9 ± 2.4%
- Antagonism of 100 nM THDOC-enhancement, α1β2γ2 ([4]; 1 μM steroid + THDOC): No effect

Structure (SMILES): C[C@]12CC[C@@H](O)C[C@@H]1CC[C@@H]1[C@@H]2CC[C@]2(C)[C@@H](C(=O)CO)CC[C@@H]12 [THDOC, 3α, 21-dihydroxy-5α-pregnan-20-one, reference compound]
- activation of the α3β3γ2L GABAA receptor by THDOC alone ([1]; 100 nM THDOC, in absence of GABA): did not activate

Structure (SMILES): C#C[C@]1(O)CC[C@]2(C)C3CC[C@]4(C)/C(=N\OC)CCC4C3CC[C@H]2C1 (stereo partly drawn) [GR3053, 3α-ethynyl-3β-hydroxy-5α-androstan-17-methoxime]
- 100 μM GABA mediated current response, area under curve, Mean ± SEM [1]: −20 ± 2.1%
- 100 μM GABA mediated current response, area under curve, Mean ± SEM ([1]; listed as 3α-ethynyl-3β-hydroxy-5α-androstan-17-methoxime): −20%
- reduction (block) of the THDOC enhanced effect ([1]; 1 μM steroid, 100 nM THDOC): > 100% and 190%
- effect on GABAs own effect on current response ([1]; 1 μM steroid): some antagonistic effect; also recorded: partial antagonistic effect
- reduction of the GABA effect ([1]; 1 μM steroid): 20%
- activation of the receptor / own effect in absence of GABA [1]: None

Structure (SMILES): CC[C@]1(O)CC[C@]2(C)C3CC[C@]4(C)/C(=N\O)CCC4C3CC[C@H]2C1 (stereo partly drawn) [GR3055, 3α-ethyl-3β-hydroxy-5α-androstan-17-oxime]
- 100 μM GABA mediated current response, area under curve, Mean ± SEM [1]: −18 ± 3.4%,
- 100 μM GABA mediated current response, area under curve, Mean ± SEM ([1]; listed as 3α-ethyl-3β-hydroxy-5α-androstan-17-oxime): −18%
- reduction (block) of the THDOC enhanced effect ([1]; 1 μM steroid, 100 nM THDOC): 57%
- effect on GABAs own effect on current response ([1]; 1 μM steroid): partial antagonistic effect
- reduction of the GABA effect ([1]; 1 μM steroid): 18%
- activation of the receptor / own effect in absence of GABA [1]: None
